Experimental data from article PMC12775434, “Ultra-large virtual screening unveils potent agonists of the neuromodulatory orphan receptor GPR139” (Nature Communications, 2025).
Several values for one entry are separate records, joined by “and”; a condition that tells them apart may be missing. Identical values can stand only once.

Key:
Format in all cases: cell-based
GPR139 [1] = molecular target: T1, GPR139 (Homo sapiens, UniProt Q6DWJ6); experiment: Ca2+ mobilization assay, agonist mode, stable GPR139-CHOk1 cell line; details: for activation of GPR139 at three concentrations: 0.1, 1 and 10 µM, activity too low to reliably determine EC50
T1 sequence (Q6DWJ6 1-353): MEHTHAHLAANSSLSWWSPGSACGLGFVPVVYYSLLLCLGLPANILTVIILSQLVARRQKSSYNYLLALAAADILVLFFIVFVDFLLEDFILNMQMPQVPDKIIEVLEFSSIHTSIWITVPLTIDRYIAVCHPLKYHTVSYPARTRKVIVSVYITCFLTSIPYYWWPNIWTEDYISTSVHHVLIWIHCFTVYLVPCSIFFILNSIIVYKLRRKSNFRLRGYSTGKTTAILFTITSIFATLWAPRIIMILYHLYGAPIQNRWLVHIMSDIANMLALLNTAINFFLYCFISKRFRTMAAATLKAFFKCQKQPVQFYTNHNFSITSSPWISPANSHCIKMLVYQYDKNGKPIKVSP
How it was run: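 Agonist activity of compounds is assessed in stably transfected CHO-K1 cells using the calcium dye Fluo-4 at 37 °C in HEPES-buffered HBSS (pH 7.4). Efficacy is expressed relative to the reference agonist Lundbeck Cmp 1a, set as 100%.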

GPR139 [2] = molecular target: T1, GPR139; experiment: Ca2+ mobilization assay, antagonist mode (EC80 800 nM Lundbeck Cmp 1a after 20 min preincubation), GPR139-CHOk1
How it was run: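 Fluo-4-loaded GPR139-CHOk1 cells in HEPES-buffered HBSS (pH 7.4, 2.5 mM probenecid) given test compounds at 10 µM, then after 20 min challenged with 800 nM Lundbeck Cmp 1a (EC80). Calcium fluorescence read at 37 °C, 485/525 nm.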

[3] = molecular target: T2, human muscarinic acetylcholine M1 receptor (M1R) (Homo sapiens, UniProt P11229); experiment: Ca2+ mobilization counter-screen in M1R-CHOk1 cells
T2 sequence (P11229 1-460): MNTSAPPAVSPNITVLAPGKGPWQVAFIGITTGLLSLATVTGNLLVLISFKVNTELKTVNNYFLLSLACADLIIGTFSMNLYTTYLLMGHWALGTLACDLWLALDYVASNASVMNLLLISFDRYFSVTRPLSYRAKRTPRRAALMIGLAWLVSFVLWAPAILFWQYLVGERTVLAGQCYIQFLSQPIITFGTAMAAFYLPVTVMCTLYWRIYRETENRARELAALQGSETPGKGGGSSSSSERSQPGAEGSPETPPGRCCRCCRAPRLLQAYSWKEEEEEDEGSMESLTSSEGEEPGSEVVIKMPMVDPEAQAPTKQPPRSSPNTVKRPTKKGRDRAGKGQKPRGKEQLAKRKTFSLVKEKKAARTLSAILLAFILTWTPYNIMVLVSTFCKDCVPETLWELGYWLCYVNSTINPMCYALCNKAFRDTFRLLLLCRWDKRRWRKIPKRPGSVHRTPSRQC
How it was run: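 Intracellular calcium is tracked by Fluo-4 fluorescence at 37 °C in M1R-CHOk1 cells, with compounds dispensed automatically once baseline is taken. Buffer is HBSS with 20 mM HEPES, pH 7.4, plus 2.5 mM probenecid.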

[4] = 0.1 µM, individual replicates (Supplementary Figure 3)
[5] = 1 µM, individual replicates (Supplementary Figure 3)
[6] = 10 µM, individual replicates (Supplementary Figure 3)
[7] = Agonist mode, individual replicates (Supplementary Figure 1)
[8] = primary screen, 10 µM compound, agonist mode, three columns = independent experiments
[9] = individual replicates (Supplementary Figure 1)
[10] = individual replicates (Supplementary Figure 2)

Ca2+ signal (% of Cmp 1a) (GPR139 [1]; [4])	Ca2+ signal (% of Cmp 1a) (GPR139 [1]; [5])	Ca2+ signal (% of Cmp 1a) (GPR139 [1]; [6])	SMILES	activation of GPR139 at three concentrations (GPR139 [1])	Ca2+ signal (% of Cmp 1a) (GPR139 [1]; [7])	Ca2+ signal (% of Cmp 1a) (GPR139 [1]; [8])	Ca2+ signal (% of Cmp 1a) (GPR139 [2]; [9])	Ca2+ signal (% of Carbachol) [3, 10]	other results
			Cc1cc(-c2nc(CC(=O)NC(C)c3ccccc3)no2)ns1 (stereo not drawn) [Compound 1.43, CC(NC(=O)CC1=NOC(=N1)C=2C=C(C)SN2)C=3C=CC=CC3]						Ca2+ signal (% of Cmp 1a) (GPR139 [1]; Agonist mode, individual replicates (Supplementary Figure 4)): 63 % of Cmp 1a and 81 % of Cmp 1a and 86 % of Cmp 1a; fold decrease in potency relative to parent compound 1 (GPR139 [1]; Ca2+ mobilization EC50): 3- to 25 fold; EC50 (GPR139 [1]; Supplementary Table 2, mean ± SEM, read-out: pEC50 Ca2+ (converted)): 1580 nM; Emax (GPR139 [1]; Supplementary Table 2, normalized to Lundbeck Cmp 1a, mean ± SEM, read-out: Emax (%) Ca2+): 102 ± 7%; Ca2+ signal (% of Cmp 1a) (GPR139 [1]; log [Compound] M = -4.5, individual replicate columns): 114 % of Cmp 1a and 107 % of Cmp 1a and 84 % of Cmp 1a; Ca2+ signal (% of Cmp 1a) (GPR139 [1]; log [Compound] M = -5.0, individual replicate columns): 92 % of Cmp 1a and 86 % of Cmp 1a and 81 % of Cmp 1a; Ca2+ signal (% of Cmp 1a) (GPR139 [1]; log [Compound] M = -5.5, individual replicate columns): 82 % of Cmp 1a and 55 % of Cmp 1a and 100 % of Cmp 1a; Ca2+ signal (% of Cmp 1a) (GPR139 [1]; log [Compound] M = -6.0, individual replicate columns): 35 % of Cmp 1a and 11 % of Cmp 1a and 48 % of Cmp 1a; Ca2+ signal (% of Cmp 1a) (GPR139 [1]; log [Compound] M = -6.5, individual replicate columns): 14 % of Cmp 1a and -6.32 % of Cmp 1a and 5 % of Cmp 1a; Ca2+ signal (% of Cmp 1a) (GPR139 [1]; log [Compound] M = -7.0, individual replicate columns): -6 % of Cmp 1a and 6 % of Cmp 1a and -11 % of Cmp 1a; Ca2+ signal (% of Cmp 1a) (GPR139 [1]; log [Compound] M = -7.5, individual replicate columns): 0.152 % of Cmp 1a and 7 % of Cmp 1a and -5.32 % of Cmp 1a; Ca2+ signal (% of Cmp 1a) (GPR139 [1]; log [Compound] M = -8.0, individual replicate columns): 0.817 % of Cmp 1a and 5 % of Cmp 1a and 7 % of Cmp 1a; Ca2+ signal (% of Cmp 1a) (GPR139 [1]; log [Compound] M = -8.5, individual replicate columns): -1.79 % of Cmp 1a and -1.64 % of Cmp 1a and 0.136 % of Cmp 1a; Ca2+ signal (% of Cmp 1a) (GPR139 [1]; log [Compound] M = -9.0, individual replicate columns): 1.86 % of Cmp 1a and -3 % of Cmp 1a and -0.513 % of Cmp 1a; Ca2+ signal (% of Cmp 1a) (GPR139 [2]; individual replicates (Supplementary Figure 4)): 4.33 % of Cmp 1a and 17 % of Cmp 1a and 5 % of Cmp 1a; Ca2+ signal (% of Carbachol) ([3]; individual replicates (Supplementary Figure 5)): -0.351 % of Carbachol and 1.19 % of Carbachol and 1.15 % of Carbachol
-5.9 % of Cmp 1a and -10.9 % of Cmp 1a	3.9 % of Cmp 1a and 9.9 % of Cmp 1a	34.7 % of Cmp 1a and 32.7 % of Cmp 1a	COCC(NC(=O)NC(C)c1ccc(F)cc1F)c1ccccc1 (stereo not drawn) [Compound 6, COCC(NC(=O)NC(C)C=1C=CC(F)=CC1F)C=2C=CC=CC2]	concentration-dependent activation of GPR139	37 % of Cmp 1a and 42 % of Cmp 1a and 46 % of Cmp 1a	37 % of Cmp 1a and 42 % of Cmp 1a and 46 % of Cmp 1a	39.4931 % of Cmp 1a and 54.2036 % of Cmp 1a and 45.3276 % of Cmp 1a	-19 % of Carbachol and -0.753 % of Carbachol	
16.2 % of Cmp 1a and 6.0 % of Cmp 1a	2.4 % of Cmp 1a and 4.1 % of Cmp 1a	22.7 % of Cmp 1a and 24.5 % of Cmp 1a	O=C(NCc1ccc(Cl)o1)N1CCCc2ccccc2C1 [Compound 7, ClC1=CC=C(CNC(=O)N2CCCC=3C=CC=CC3C2)O1]	concentration-dependent activation of GPR139	44 % of Cmp 1a and 39 % of Cmp 1a and 33 % of Cmp 1a	44 % of Cmp 1a and 39 % of Cmp 1a and 33 % of Cmp 1a	37.7665 % of Cmp 1a and 52.8581 % of Cmp 1a and 40.8806 % of Cmp 1a	-10 % of Carbachol and -18 % of Carbachol	
-2.0 % of Cmp 1a and -2.7 % of Cmp 1a	3.0 % of Cmp 1a and 3.4 % of Cmp 1a	24.4 % of Cmp 1a and 22.7 % of Cmp 1a	C[C@H](NC(=O)c1ccc(Cn2cc(Cl)cn2)o1)c1ccccc1 [Compound 8, C[C@H](NC(=O)C1=CC=C(CN2C=C(Cl)C=N2)O1)C=3C=CC=CC3]		47 % of Cmp 1a and 45 % of Cmp 1a and 51 % of Cmp 1a	47 % of Cmp 1a and 45 % of Cmp 1a and 51 % of Cmp 1a	48.2832 % of Cmp 1a and 57.355 % of Cmp 1a and 45.2011 % of Cmp 1a	-17 % of Carbachol and 6 % of Carbachol	
